# Data reported in US12653899B2, “Multi-targeted, tunable, sustained delivery of payloads to charged avascular tissues” (Massachusetts Institute of Technology, priority 2019, dated 2026).
# Columns and labels:
# [1] = system: human ankle cartilage explants; assay: Aggrecan/sGAG biosynthesis rate (35S-sulfate incorporation) in human ankle cartilage explants; format: cell-based; settings: for biosynthesis rate of explants compared to the untreated control: single 39.2 nM dose (equivalent to 300 ng/ml free IGF-1), FIGS. 19A-19B; for sGAG biosynthesis rate: single 500 nM, 1 μM and 2 μM doses, Day 0 to Day 3, both ankle and knee cartilage; for elevated biosynthesis rate after single dose, up to Day 7 / elevated biosynthesis rate after single dose, up to Day 15: single dose not replenished during media changes, FIG. 12 (ankle and knee)
# Protocol: (§1) Cartilage was harvested from both ankles of a donor (Collins Grade 0). Cartilage explants were equilibrated in culture media for 3 days after harvest. […] These were cut down to 1 mm thickness and allowed to equilibrate for a further 2.5 days before experiments were set up. A dose response experiment and an uptake experiment were set up in parallel.
# Subsets of the experiment were terminated at 3 days and 7 days from the start of the experiment. Media changes were performed every 2 to 3 days. 3 doses of free +9 GFP were included as additional controls, which tests whether high doses of the drug delivery carrier has adverse effects on aggrecan biosynthesis rate.
# (§2) For the 3-day termination experiment, chondrocyte biosynthesis rate (primarily aggrecan synthesis) was measured between days 0 and 3 of the experiment using a 35S-sulfate radiolabel. For the 7-day experiment, this measurement was done between days 5 and 7. Statistics: 1-way ANOVA with post-hoc Tukey's HSD test.
# as §1, with “the ankle” for “both ankles”, “1).” for “0).”, “2” for “3”, “A 7-day” for “A”, “was” for “and an uptake experiment were”, “up.” for “up in parallel.”
# Chondrocyte biosynthesis rate (primarily aggrecan synthesis) was measured between days 5 and 7 of the experiment using a 35S-sulfate radiolabel. Statistics: 1-way ANOVA with post-hoc Tukey's HSD test.
# (§3) Cartilage explants that were equilibrated in culture medium post-harvest were transferred to ultra-low attachment cell culture plates (Corning) for dose response experiments. All experiments were carried out in low glucose, serum free medium (same composition as equilibration medium). Previous studies studying the effects of IGF-1 on cartilage explants have used doses ranging from 10 ng/ml to 300 ng/ml. Based on these, 300 ng/ml (equivalent to 39.2 nM) of free recombinant human IGF-1 (PeproTech, Rocky Hill, NJ) was used as the positive control.
# (§4) Since each fusion protein had one IGF-1 domain, equivalent doses (39.2 nM) of these were tested. In addition to this, 500 nM, 1 μM and 2 μM doses of fusion proteins were also tested. In all cases, only a single dose of the fusion proteins was added at the start of the experiment, and media changes were carried out without fusion proteins once every 2 to 3 days thereafter. In contrast, continuous doses of free IGF-1 were used for the positive control. An untreated control group was also included in the experiments. Experiments were terminated at 3-day, 7-day and 15-day time points. Outcome measures included the biosynthesis rate of sulfated glycosaminoglycans (sGAG), explant metabolic rate, sGAG loss to the culture medium and the explant sGAG content at the end of the experiment.
# (§5) The metabolic rate of cartilage explants was measured using the Alamar Blue assay (ThermoFisher). Cartilage explants were incubated for 3 hours in a 1× solution of Alamar Blue dissolved in culture medium. At the end of the incubation period, the absorbance of the medium at 570 nm and 600 nm was measured using a microplate reader (Synergy H1 Hybrid Multi-Mode Microplate Reader, BioTek). These readings were used to calculate the percentage reduction of Alamar Blue, which is directly proportional to the explant metabolic rate. These values were first normalized by individual explant weights. Following this, the weight-normalized readings for the treatment groups were normalized by the weight-normalized mean value for the untreated controls. To measure the chondrocyte biosynthesis rate of sulfated glycosaminoglycans (sGAGs), cartilage explants were cultured in the presence of 10 μCi/mL 35S-sulfate radiolabel during the final two days of each experiment. […]
# [2] = system: human knee cartilage explants; assay: Aggrecan/sGAG biosynthesis rate (35S-sulfate incorporation) in human knee cartilage explants; format: cell-based
# Protocol: (§6) Cartilage was harvested from the knee joint of a donor. Cartilage explants were equilibrated in culture media for 2 days after harvest. […] These were cut down to 1 mm thickness and allowed to equilibrate for a further 2 days before the experiment was set up. Subsets of the experiment were terminated at 3 days and 7 days from the start of the experiment. Media changes were performed every 2 to 3 days.
# as §2, with “7-day termination” for “7-day”
# as §6, with “for 3” for “for 2”, “further 3” for “further 2”
# as §3, §4
# as §5, with “experiment. Following this, the explants were washed with PBS with non-radioactive sulfate to wash out excess radiolabel, weighed and digested with proteinase K. A liquid scintillation counter (PerkinElmer) was used to measure the amount of radiolabel incorporated within the extracellular matrix of the tissues. Radiolabel incorporation data were normalized by the duration of exposure to radiolabel and by the wet weight of the explants (Li et al., Osteoarthritis and Cartilage 23(2):266-274 (2015)).” for “experiment.”
# [3] = Experiment 1, knee, donor, single 500 nM dose, 3-day time point (days 0-3)
# [4] = Experiment 2, knee, donor, single 2 μM dose, 3-day time point
# [5] = Experiment 2, knee, single 1 μM dose, 7-day time point
# [6] = Experiment 2, knee, single 2 μM dose, 7-day time point
substance,measurement,setting,value
"(+9GFP)-(EAAAK)3-(IGF-1): fusion protein of +9 GFP and human IGF-1 with rigid (EAAAK)3 linker, SEQ ID NO: 8",aggrecan biosynthesis rate compared to the untreated control,"[1]; Experiment 3A, ankle, all three single doses (500 nM, 1 μM, 2 μM), 7-day time point",statistically significantly higher
same,biosynthesis rate of explants compared to the untreated control,[1],did not increase
same,sGAG biosynthesis rate,[1],significant increase
same,"elevated biosynthesis rate after single dose, up to Day 7",[1],sustained up to Day 7
same,"elevated biosynthesis rate after single dose, up to Day 15",[1],could not maintain
same,aggrecan biosynthesis rate compared to the untreated control,[2]; [3],not statistically significantly different
same,aggrecan biosynthesis rate compared to the untreated control,"[2]; Experiment 2, knee, donor, single 1 μM dose, 3-day time point",statistically significantly higher
same,aggrecan biosynthesis rate compared to the untreated control,[2]; [4],statistically significantly higher
same,aggrecan biosynthesis rate compared to the untreated control,[2]; [5],statistically significantly higher
same,aggrecan biosynthesis rate compared to the untreated control,[2]; [6],statistically significantly higher
"(+9GFP)-(GGGGS)4-(IGF-1): fusion protein of +9 GFP and human IGF-1 with flexible (GGGGS)4 linker, SEQ ID NO: 7",aggrecan biosynthesis rate compared to the untreated control,"[1]; Experiment 3A, ankle, donor, single 500 nM dose, 3-day time point",statistically significantly higher
same,aggrecan biosynthesis rate compared to the untreated control,"[1]; Experiment 3A, ankle, single 500 nM dose, 7-day time point",statistically significantly higher
same,aggrecan biosynthesis rate compared to the untreated control,"[1]; Experiment 3A, ankle, single 1 μM dose, 7-day time point",statistically significantly higher
same,aggrecan biosynthesis rate compared to the untreated control,"[1]; Experiment 3A, ankle, single 2 μM dose, 3-day time point",statistically significantly higher
same,aggrecan biosynthesis rate compared to the untreated control,"[1]; Experiment 4, ankle, donor, single 500 nM dose, days 5-7",statistically significantly higher
same,aggrecan biosynthesis rate compared to the untreated control,"[1]; Experiment 4, ankle, donor, single 1 μM dose, days 5-7",statistically significantly higher
same,biosynthesis rate of explants compared to the untreated control,[1],did not increase
same,sGAG biosynthesis rate,[1],significant increase
same,"elevated biosynthesis rate after single dose, up to Day 7",[1],sustained up to Day 7
same,"elevated biosynthesis rate after single dose, up to Day 15",[1],could not maintain
same,aggrecan biosynthesis rate compared to the untreated control,[2]; [3],significantly higher
same,aggrecan biosynthesis rate compared to the untreated control,"[2]; Experiment 1, knee, donor, single 2 μM dose, 3-day time point",not statistically significantly different
same,mean aggrecan biosynthesis rate at Day 7 versus Day 3,"[2]; Experiment 1, knee, single 500 nM and 2 μM doses on Day 0",the same as the rate on Day 3
same,aggrecan biosynthesis rate compared to the untreated control,"[2]; Experiment 1, knee, single 500 nM dose, 7-day time point (days 5-7)",not statistically significantly different
same,aggrecan biosynthesis rate compared to the untreated control,"[2]; Experiment 1, knee, single 2 μM dose, 7-day time point",not statistically significantly different
same,aggrecan biosynthesis rate compared to the untreated control,"[2]; Experiment 2, knee, donor, single 500 nM dose, 3-day time point",statistically significantly higher
same,aggrecan biosynthesis rate compared to the untreated control,[2]; [4],statistically significantly higher
same,aggrecan biosynthesis rate compared to the untreated control,[2]; [5],statistically significantly higher
same,aggrecan biosynthesis rate compared to the untreated control,[2]; [6],statistically significantly higher
"IGF-1: free recombinant human IGF-1 (PeproTech), pro-anabolic growth factor used as the positive control",aggrecan biosynthesis rate compared to the untreated control,"[1]; Experiment 3A, ankle, continuous 40 nM free IGF-1, 3-day time point",statistically significantly higher
same,aggrecan biosynthesis rate compared to the untreated control,"[1]; Experiment 3A, ankle, continuous 40 nM free IGF-1, 7-day time point",statistically significantly higher
same,aggrecan biosynthesis rate compared to the untreated control,"[1]; Experiment 4, ankle, continuous 40 nM free IGF-1, days 5-7",statistically significantly higher
same,sulfate incorporation rate compared to the untreated control,"[1]; continuous 39.2 nM free IGF-1, FIG. 19A",significantly increased
same,aggrecan biosynthesis rate compared to the untreated control,"[2]; Experiment 1, knee, donor, continuous 40 nM free IGF-1, 3-day time point",significantly higher
same,aggrecan biosynthesis rate compared to the untreated control,"[2]; Experiment 1, knee, continuous 40 nM free IGF-1, 7-day time point",significantly higher
same,aggrecan biosynthesis rate compared to the untreated control,"[2]; Experiment 2, knee, continuous 40 nM free IGF-1, 3-day time point",statistically significantly higher
same,aggrecan biosynthesis rate compared to the untreated control,"[2]; Experiment 2, knee, continuous 40 nM free IGF-1, 7-day time point",statistically significantly higher
